According to US4737518A, “Lipid derivatives, their production and use” (Takeda Chemical Industries, Ltd., priority 1984, dated 1988):
Counter-ions that a name gives are not always drawn.

Legend:
[1] = system: PAF-induced hypotension; assay: Restoring activity against PAF-induced hypotension; format: in vivo, rat (male S.D.); conditions: 3 min after PAF 1 μg/kg i.v., 1 min after test drug
Procedure: Restoring activity against PAF-induced hypotension
Male S.D. rats, aged 16 weeks, were employed.
Under anesthesia with pentobarbital, cannulas were inserted into the femoral artery and vein of rats for measurement of blood pressure and for administration of a drug, respectively. Three (3) minutes after intravenous administration of 1 μg/kg (0.25% BAS physiological saline solution; volume of 0.2 ml/kg) of PAF, a test drug (physiological saline solution; volume of 0.5 ml/kg) was administered intravenously, and blood pressure was measured for subsequent 1 hour.
The ratio of hypertension by the test drug to hypotension by PAF was taken as a restoration rate.
Restoration rate (%)=[(Blood pressure just before i.v. administration of a test drug)-(Blood pressure 1 min. after i.v. administration of a test drug)/(Blood pressure just before i.v. administration of PAF)-(Blood pressure just before i.v. administration of a test drug)]×100

[2] = system: PAF-induced death; assay: Prevention activity against PAF-induced death in mice; format: in vivo, mouse (male Jc1-ICR); conditions: for (Mice survived)/(mice employed): PAF 50 μg/kg i.v., control 3/16
Procedure: Prevention activity against PAF-induced death in mice
The test drug was investigated for the preventive activity against shock death to be brought about within 30 min. after 50 μg/kg of PAF in the form of 0.1 ml/kg physiological saline solution was given intravenously to a male Jc1-ICR mouse. The test drug was administered intravenously 5 min. before the injection of PAF.
In accordance with the same procedure as described in Experiment Example 2, the test compounds were investigated for the preventive activity against PAF-induced death in mice.

[3] = system: rabbit platelet aggregation by PAF; assay: Inhibitory activity on rabbit platelet aggregation by PAF; format: cell-based; conditions: Oryctolagus cuniculus, PAF 1×10^-8 M, read-out: rate of inhibition of rabbit platelet aggregation by PAF; for inhibition at 1 µM: test drug 1 × 10^-6 M; for inhibition at 30 µM: test drug 3 × 10^-5 M; for inhibition at 3 µM: test drug 3 × 10^-6 M; for inhibition at 0.3 µM: test drug 3 × 10^-7 M
[4] = system: HL-60 cells; assay: Effect on inducing differentiation of HL-60 cells (NBT-positive cells); format: cell-based, human; conditions: 6 days; for Emax: Homo sapiens, HL-60, 144 h, at optimal conc., NBT-positive relative to live cells, read-out: Maximum differentiation extent: Differentiation
Procedure: Assay of the effects on inducing differentiation of HL-60 cells (human promyelocytic leukemia cells) and Neuro-2a cells (mouse neuroblastoma cells): RPMI-1640 medium (Flow Laboratories, Inc.) supplemented with 20% fetal calf serum (M.A. […] The culture was incubated at 37° C. in a 5% CO2 incubator for 6 days. […] The reaction was allowed to proceed at 37° C. for 20 minutes. The reaction was stopped by cooling with ice, and the cells were washed by means of centrifugation, followed by collecting 3-5×10^4 cells and by subjecting to centrifugation using Cytospin centrifuge to prepare a cell smear, which was fixed with methanol and stained with Kernechtrot solution. On each cell smear, the percentage of NBT-positive cells relative to live cells, […] by examination of a minimum of 200 cells, was expressed as the differentiation extent.

[5] = Table 4, 1.0 mg/kg i.v., control 24%
[6] = Table 4, 0.3 mg/kg i.v., control 24%

| Compound | Restoration rate ([1]; 0.5 mg/kg i.v.) | inhibition at 30 µM [3] | inhibition at 3 µM [3] | Survival rate [2, 5] | inhibition at 0.3 µM [3] | Maximum differentiation extent: Optimal conc. [4] | Emax [4] | further results |
| --- | --- | --- | --- | --- | --- | --- | --- | --- |
| CCCCCCCCCCCCCCCCCCOCC(COC(=O)N(CC[N+](C)(C)C)C(C)=O)OC(C)=O (centres unmarked) [Example 3, 2-O-Acetyl-3-O-[N-acetyl-N-(2'-trimethylammonioethyl)]carbamoyl-1-O-octadecylglycerol iodide] | 48% | 100% | 100% |  |  |  |  | Survival rate ([2]; 0.1 mg/kg i.v. 5 min before PAF 50 μg/kg i.v., control 19%): 38%; (Mice survived)/(mice employed) ([2]; 0.1 mg/kg i.v.): 3/8; Survival rate ([2]; 1.0 mg/kg i.v. 5 min before PAF 50 μg/kg i.v., control 19%): 100%; (Mice survived)/(mice employed) ([2]; 1.0 mg/kg i.v.): 8/8; prevention of PAF-induced death (conclusion) ([2]; 0.1 and 1 mg/kg i.v.): potent drug for prevention of PAF-induced death; inhibition at 1 µM [3]: 86% |
| CCCCCCCCCCCCCCCCCCNC(=O)OCC(COC(=O)N(CC[N+](C)(C)C)C(C)=O)OC (centres unmarked) [Example 25, 3-O-[N-Acetyl-N-(2'-trimethylammonioethyl)]carbamoyl-2-O-methyl-1-O-octadecylcarbamoylglycerol iodide] |  | 100% | 100% | 94% |  |  |  | Restoration rate ([1]; 1.0 mg/kg i.v.): 69%; inhibition at 1 µM [3]: 40% |
| CCCCCCCCCCCCCCCCCCNC(=O)OCC(COC(=O)N(CC[N+]1(C)CCCC1)C(C)=O)OC (centres unmarked) [Example 35, 3-O-[N-Acetyl-N-(2'-N-methylpyrrolidinioethyl)]carbamoyl-2-O-methyl-1-O-octadecylcarbamoylglycerol hydrochloride] | 73% | 100% | 100% | 80% | 45% |  |  |  |
| CCCCCCCCCCCCCCCCCCNC(=O)OCC(COC(=O)N(CC[N+]1(C)CCCC1)C(=O)OC)OC (centres unmarked) [Example 43, 3-O-[N-Methoxycarbonyl-N-(2'-N-methylpyrrolidinioethyl)]carbamoyl-2-O-methyl-1-O-octadecylcarbamoylglycerol iodide] | 83% | 100% | 100% | 100% |  |  |  |  |
| CCCCCCCCCCCCCCCCCCNC(=O)OCC(COC(=O)N(CC1CCC[N+]1(C)CC)C(C)=O)OC (centres unmarked) [Example 45, 3-O-[N-Acetyl-N-(1'-ethyl-1'-methylpyrrolidinio-2'-yl)methyl]carbamoyl-2-O-methyl-1-O-octadecylcarbamoylglycerol iodide] |  | 100% | 100% | 100% | 41% | 0.48 µg/mL | 72% | Survival rate [2, 6]: 77% |
| CCCCCCCCCCCCCCCCCCOCC(CN1CC(=O)N(CC[N+](C)(C)C)C1=O)OC(C)=O (centres unmarked) [Example 91, 1-[1-(2-Acetoxy-3-ocatadecyloxy)propyl]-3-(2-trimethylammonioethyl)hydantoin chloride.] | 77% | 100% | 100% | 100% | 78% |  |  |  |
| CCCCCCCCCCCCCCCCCCOCC(CN1CC(=O)N(CC[n+]2ccsc2)C1=O)OC(C)=O (centres unmarked) [Example 92, 1-[1-(2-Acetoxy-3-octadecyloxy)propyl]-3-(2-thiazolioethyl)hydantoin chloride] | 77% | 100% | 100% | 100% |  |  |  | Survival rate [2, 6]: 77% |
| CCCCCCCCCCCCCCCCCCNC(=O)OCC(COC(=O)N(Cc1cccc[n+]1C)C(C)=O)OC (centres unmarked) [Example 104, 3-O-[N-Acetyl-N-(N-methylpyridnio-2-yl)methyl]carbamoyl-2-O-methyl-1-O-octadecylcarbamoylglycerol chloride] |  | 100% | 100% |  | 100% |  |  | Restoration rate ([1]; 0.1 mg/kg i.v.): 94% |
| CCCCCCCCCCCCCCCCCCNC(=O)OCC(CN1CC(=O)N(CC[N+](C)(C)C)C1=O)OC (centres unmarked) [Example 115, 1-[(2-Methoxy-3-octadecylcarbamoyloxy)propyl]-3-[2-(trimethylammonio)ethyl]hydantoin chloride] |  | 100% | 100% |  | 9% | 1.25 µg/mL | 61% |  |
| CCCCCCCCCCCCCCCCNC(=O)OCC(COC(=O)N(Cc1cccc[n+]1CC)C(C)=O)OC (centres unmarked) [Example 169, 3-[N-Acetyl-N-(N'-ethylpyridinio-2-yl)methyl]carbamoyl-1-hexadecylcarbamoyl-2-methylglycerol chloride] |  | 100% | 100% |  | 100% | 0.32 µg/mL | 59% |  |
| CCCCCCCCCCCCCCNC(=O)OCC(COC(=O)N(Cc1cccc[n+]1CC)C(C)=O)OC (centres unmarked) [Example 170, 3-[N-Acetyl-N-(N'-ethylpyridinio-2-yl)methyl]carbamoyl-2-methyl-1-tetradecylcarbamoylglycerol chloride] |  | 100% | 100% |  | 100% | 0.32 µg/mL | 77% |  |
